Holding throughout (assay): combination Emax (second highest fraction inhibited in the dose matrix, 72 h); higher = more inhibition; extreme values may be limits of the assay
Assay [1] deals with SK-MM-2 (Plasma Cell Myeloma). A digest of the protocol: (§1)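 Bliss excess equals the observed combination effect minus the expected value EA + EB − EA·EB, where EA and EB are the effects of each agent alone. Combination Emax is the second-highest inhibition within the matrix. Inhibition was scaled from CellTiter-Glo 2.0 luminescence, with 0 set by vehicle wells and 1 by blank wells, after 72 hours of two-drug dosing of cells plated in 1536-well plates.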

The subject of assay [2] is NCI-H196 (Small Cell Lung Carcinoma). A digest of the protocol:
as §1

Assay [3] concerns OV-90 (Ovarian Carcinoma). A digest of the protocol: as §1
The subject of assay [4] is CHL-1 (Melanoma). An outline of the steps: as §1
For assay [5], the system named is PC-14 (Lung Adenocarcinoma). An outline of the steps:
as §1

Assay [6] deals with CML-T1 (Chronic Myelogenous Leukemia). A digest of the protocol: as §1
In assay [7] the test system is OCI-AML5 (Acute Myeloid Leukemia). A digest of the protocol: as §1
The test system of assay [8] is ES-2 (Ovarian Carcinoma). A digest of the protocol:
as §1

The subject of assay [9] is NCI-H1623 (Lung Adenocarcinoma). An outline of the steps: as §1
The subject of assay [10] is AsPC-1 (Pancreatic Carcinoma). A digest of the protocol:
as §1

Assay [11] relates to KYM-1 (Rhabdomyosarcoma). A digest of the protocol:
as §1

Assay [12] deals with FLO-1 (Esophageal Adenocarcinoma). A digest of the protocol: as §1
Assay [13] has as its system NCI-H1155 (Non-Small Cell Lung Carcinoma). An outline of the steps:
as §1

For assay [14], the system named is COLO-684 (Endometrial Carcinoma). A digest of the protocol: as §1
The subject of assay [15] is HuO-3N1 (Osteosarcoma). A digest of the protocol:
as §1

Assay [16] relates to NCI-H1755 (Lung Adenocarcinoma). A digest of the protocol:
as §1

In assay [17] the test system is HSC-3 (Oral Cavity Carcinoma). A digest of the protocol:
as §1

The test system of assay [18] is RT4 (Bladder Carcinoma). A digest of the protocol:
as §1

The subject of assay [19] is OVTOKO (Ovarian Carcinoma). A digest of the protocol:
as §1

Assay [20] concerns SW684 (Other Solid Carcinomas). An outline of the steps:
as §1

For the molecule `CN(CCO)CC[C@H](CSc1ccccc1)Nc1ccc(S(=O)(=O)NC(=O)c2ccc(N3CCC([C@@H](O)c4ccccc4-c4ccc(Cl)cc4)CC3)cc2)cc1S(=O)(=O)C(F)(F)F` [AZD4320] + Cn1cnc2c(F)c(Nc3ccc(Br)cc3Cl)c(C(=O)NOCCO)cc21 [Selumetinib] (first compound max 1 µM, 7x7, partner max 3 µM), the “combination Emax” value in [1] was found to be 1; in assay [2], 0.275; in assay [3], 0.981; in assay [4], 0.389; in assay [5], 0.333; in [6] it was 0.996. For the same molecule, the “combination Emax” value amounted to 1 in [7]; 0.466 in [8]; 0.859 in assay [9]; 0.759 in assay [10]; 0.203 in assay [11]; 0.453 in assay [12]. The “combination Emax” value in assay [13] is 0.95; in assay [14], 0.355; in assay [15], 0.221; in assay [16], 0.295; in assay [17], 0.701; in assay [18], 0.601. The “combination Emax” value in assay [19] was found to be 0.318; in assay [20], 0.609.

Turning to `NC1(C(=O)N[C@@H](CCO)c2ccc(Cl)cc2)CCN(c2ncnc3[nH]ccc23)CC1` [Capivasertib] + CCN(CCO)CCCOc1ccc2c(Nc3cc(CC(=O)Nc4cccc(F)c4)[nH]n3)ncnc2c1 [AZD2811] (first compound max 10 µM, 7x7, partner max 1 µM), the “combination Emax” value was 0.239 in [1]; 0.358 in [2]; 0.364 in assay [3]; 0.567 in assay [4]; 0.505 in assay [5]; 0.9 in [6]. Further, the “combination Emax” value came to 0.974 in assay [7]; 0.413 in [8]; 0.555 in assay [9]; 0.233 in [10]; 0.559 in assay [11]; 0.415 in assay [12]. Moreover, the “combination Emax” value in [13] was found to be 0.864; in assay [14], 0.659; in assay [15] it was 0.494; in [16], 0.648; in [17] it was 0.689; in assay [18], 0.457. Further, the “combination Emax” value turned out to be 0.568 in assay [19] and 0.617 in assay [20].

For `Cc1nc(Nc2ncc(C(=O)Nc3c(C)cccc3Cl)s2)cc(N2CCN(CCO)CC2)n1` [Dasatinib] + CC(=O)Nc1cccc(-n2c(=O)n(C3CC3)c(=O)c3c(Nc4ccc(I)cc4F)n(C)c(=O)c(C)c32)c1 [Trametinib] (first compound max 2 µM, 7x7, partner max 1 µM), the “combination Emax” value in assay [1] was 0.123; in assay [2] it was 0.103; in [3], 0.752; in assay [4], 0.409; in assay [5], 1; in assay [6], 0.966. In addition, the “combination Emax” value amounted to 0.81 in assay [7]; 0.86 in [8]; 0.576 in [9]; 0.612 in [10]; 0.401 in assay [11]; 0.966 in [12]. The “combination Emax” value in [13] is 0.237; in [14] it was 0.0848; in [15], 0.493; in assay [16] it was 0.961; in assay [17] it was 0.867; in assay [18] it was 0.822. In addition, the figures for the “combination Emax” value in [19] and in [20] were 0.748 and 0.609, respectively.

Consider `COc1cccc(OCCCN)c1-c1cc(Nc2cnc(C#N)cn2)n[nH]1` [Prexasertib] + CN(C)CCCOc1ccc(-c2ccc3ncc4c(c3c2)n(C2CCOCC2)c(=O)n4C)cn1 [AZD0156] (first compound max 1 µM, 7x7, partner max 1 µM), for which the “combination Emax” value in assay [1] worked out at 0.652; in assay [2], 0.606; in assay [3], 0.532; in assay [4], 0.814; in assay [5], 0.85; in [6] it was 0.987. The “combination Emax” value was 1 in [7]; 0.863 in [8]; 0.804 in assay [9]; 0.444 in assay [10]; 0.952 in assay [11]; 0.724 in assay [12]. The “combination Emax” value in assay [13] amounted to 0.885; in assay [14], 0.854; in [15], 0.48; in assay [16] it was 0.936; in [17], 0.654; in assay [18], 0.304. Moreover, the “combination Emax” value is 0.647 in assay [19] and 0.42 in [20].

In the case of `Cc1cc2ncnn2cc1Nc1ncc2c(n1)n(C1CCOCC1)c(=O)n2C` [AZD7648] + CN(C)CCCOc1ccc(-c2ccc3ncc4c(c3c2)n(C2CCOCC2)c(=O)n4C)cn1 [AZD0156] (first compound max 10 µM, 7x7, partner max 1 µM), the “combination Emax” value in assay [1] amounted to 0.205; in [2], 0.203; in assay [3], 0.216; in assay [4], 0.253; in assay [5], 0.28; in assay [6], 0.388. Moreover, the “combination Emax” value in assay [7] was 0.297; in assay [8] it was 0.295; in [9] it was 0.257; in assay [10], 0.274; in assay [11], 0.165; in assay [12], 0.358. For the same molecule, the “combination Emax” value in assay [13] was 0.319; in assay [14], 0.28; in assay [15] it was 0.369; in [16] it was 0.362; in assay [17], 0.174; in assay [18], 0.42. In addition, the “combination Emax” value is 0.229 in [19] and 0.268 in [20].

Consider `CN(CCO)CC[C@H](CSc1ccccc1)Nc1ccc(S(=O)(=O)NC(=O)c2ccc(N3CCC([C@@H](O)c4ccccc4-c4ccc(Cl)cc4)CC3)cc2)cc1S(=O)(=O)C(F)(F)F` [AZD4320] + C1CN(CCC1(C(=O)N[C@@H](CCO)C2=CC=C(C=C2)Cl)N)C3=NC=NC4=C3C=CN4 [Capivasertib] (first compound max 1 µM, 7x7, partner max 3 µM), for which the “combination Emax” value is 1 in assay [1]; 0.175 in assay [2]; 0.717 in [3]; 0.0871 in [4]; 0.255 in [5]; 0.977 in [6]. The “combination Emax” value in assay [7] was 1; in [8], 0.131; in [9], 0.278; in assay [10], 0.643; in assay [11], 0.0568; in [12] it was 0.343. Also, the “combination Emax” value in assay [13] is 0.904; in assay [14], 0.447; in [15] it was 0.201; in [16], 0.303; in assay [17], 0.53; in assay [18], 0.144. For the same molecule, the “combination Emax” value was 0.413 in assay [19] and 0.449 in assay [20].

Source of the values: the supplement of paper PMC11061612.
